Drawing on a melting point compilation (Tetko et al.; mined from patent text by program, amines drawn as free bases though some values may be those of a salt), this text covers melting point for 88 molecules.

A value given as a limit tells only on which side of the number the result lay.

As for `CC(=O)NCCNc1nc(-c2ccccc2)nc2[nH]c(COc3ccccc3)cc12`, the melting point was in the range of 196 to 197 °C.

The molecule `CCNC(=O)Nc1ccc(-c2ccc3nnn(Cc4ccc5ncccc5c4)c3n2)cc1` displayed a melting point of 193 to 196 °C.

Molecule `CCCCc1ncc(C=O)n1Cc1ccc(C(=O)O)c2ccccc12` displayed a melting point of 182 °C.

Consider `CCC(=O)c1ccc(OC(C)(C)C(=O)OC)cc1`, for which the melting point is 47 to 49 °C.

With `CCOC(=O)c1ccc(OCCCCC(=O)c2ccc(Cl)s2)cc1`, the melting point is 87 to 89 °C.

The molecule `Cc1cc2c(s1)Nc1ccccc1N=C2N1CCN(C)[C@@H](COCc2ccccc2)C1` gave a melting point of 55 to 65 °C.

The molecule `O=S(=O)(CC1CC1)c1nc(-c2ccc(F)cc2)c(-c2ccc(F)cc2)[nH]1` yielded a melting point of 251 °C.

`OCC(O)CNC(c1ccccc1)C(O)c1ccccc1` (stereo not drawn) returned a melting point of 161 to 163 °C.

With `CCC(c1ccc2[nH]c(C(F)(F)F)nc2c1)n1ccnc1` (stereo not drawn), the melting point stood at 173 °C.

On to `CCOc1nn(-c2ccc(C(F)(F)F)cn2)cc1CCCCOc1cc(CCC(=O)O)n(-c2ccccc2)n1`, for which the melting point lay within 138 to 139 °C.

`Cc1cc(C#N)c(C)c(C(=O)Nc2ccc(F)c(C)n2)n1`: the melting point came out at 201 °C.

In turn, `CCOC(=O)c1ccc(-c2ccc(O)c(-c3ccc(N(CC)CC)c(C(F)(F)F)c3)c2)cc1` returned a melting point of 170 °C.

`CCNc1cncc(C(=NCCO[N+](=O)[O-])NC#N)c1` had a melting point of 100 °C.

With `CC(C)(C)OC(=O)N1CCO[C@@H](c2ccc(C(=O)O)cc2)C1`, the melting point was 173 °C.

The molecule `CS(=O)(=O)N1CCCn2c(nc3c(N)nc4cccnc4c32)C1` registered a melting point of over 250 °C.

Regarding `COn1c(-c2ccccc2)nc2c(N)nc3ccccc3c21`, the melting point fell in the range of 241 to 243 °C.

In turn, `CN1CCC(OC2c3ccccc3CCn3cc(-c4ccc(NC(=O)C(C)(C)C)cc4)nc32)CC1` (stereo not drawn) yielded a melting point of 120 °C.

Consider `COc1ccc2c(c1)cc(-c1nnn(Cc3cccc(OCc4ccc5ccccc5n4)c3)n1)c(=O)n2C`, for which the melting point fell in the range of 125 to 127 °C.

On to `Cc1ccc(NC(=O)c2ccc(C(=O)Nc3ccccc3NC(=O)OC(C)(C)C)s2)cc1Nc1nccc(-c2cccnc2)n1`, for which the melting point was 206 to 208 °C.

As for `CN(C(N)=O)c1ccc(C(O)(C(F)(F)F)C(F)(F)F)cc1`, the melting point lay in the range of 181 to 184 °C.

For the molecule `Cn1c(-c2ccc(-c3cncs3)cc2)cnc1[C@H](Cc1ccccn1)N(C=O)c1cc2cc(Cl)ccc2o1`, the melting point fell in the range of 165 to 167 °C.

Molecule `O=C(Nc1ccc([N+](=O)[O-])cc1)C(F)F` displayed a melting point of 188 to 189 °C.

On to `Cn1nnnc1-c1ccccc1S(N)(=O)=O`, for which the melting point was 176 to 179 °C.

In turn, `CCOC(=O)C1=C(C)Nc2nc(N3CCOCC3)nc(N3CCOCC3)c2C1c1cccnc1Cl` (stereo not drawn) had a melting point of 185 °C.

Turning to `Cc1cc(Cl)nc(NC(=O)NS(=O)(=O)c2ccccc2OC(F)F)n1`, the melting point is 190 to 191 °C.

In turn, `O=C(c1cc2ccc(O)cc2[nH]1)N1CCC(Cc2ccc(F)cc2)CC1` had a melting point of 180 to 182 °C.

In turn, `COc1ccc(Cc2ncc(CO)c3cc(OC)c(OC)cc23)cc1OC` yielded a melting point of 140 to 146 °C.

Molecule `Cn1ncnc1COc1nn2c(-c3ccccc3F)nncc2c1-c1ccc(F)cc1` had a melting point of 192 °C.

Molecule `CC(=O)OC1C(=O)N(c2nnc(C(C)(C)C)s2)C(=O)N1C` (stereo not drawn) registered a melting point of 168 °C.

In the case of `COCCOc1cc(NC(=O)OC(C)(C)C)c([N+](=O)[O-])cc1I`, the melting point lay in the range of 109 to 111 °C.

In turn, `COc1cccc(Cl)c1C1SC(=O)NC1=O` (stereo not drawn) displayed a melting point of 195 to 197 °C.

Regarding `Cc1c(C#N)sc2nc(-c3ccc([N+](=O)[O-])cc3)nc(N3CCNCC3)c12`, the melting point was found to be 250 °C.

In turn, `Fc1cc(F)cc(N2c3ccccc3Sc3ccccc32)c1` displayed a melting point of 111 to 115 °C.

`C[C@@H]1[C@@H](C(=O)Cc2ccccc2)C(=O)N1OCc1ccccc1` displayed a melting point of 97 to 99 °C.

With `CC(C)(C)c1cc(CCC(=O)NCCOC(=O)CCc2cc(C(C)(C)C)c(O)c(C(C)(C)C)c2)cc(C(C)(C)C)c1O`, the melting point lay within 151 to 154 °C.

`FC1=COC(COCc2ccccc2)C(COCc2ccccc2)O1` (stereo not drawn) showed a melting point of 61.5 to 63 °C.

`O=C1CC2c3ccccc3CCN2C2CCCC12` (stereo not drawn) registered a melting point of 101 to 102 °C.

`CC(=O)Nc1ccc(/C=C/c2cc(/C=C/c3ccc4cc[nH]c4c3)[nH]n2)cc1` yielded a melting point of over 300 °C.

For the molecule `NC(=O)NCCS(=O)Cc1ccccc1` (stereo not drawn), the melting point amounted to 110 °C.

The molecule `COC(=O)C(C)=CC1C(C(=O)OC(C)(C)N2C(=O)C=CC2=O)C1(C)C` (stereo not drawn) had a melting point of 98.7 °C.

`CSc1cc2c(cc1C(F)(F)F)N(C(=O)Nc1ccc(C(=O)N(C)c3ccncc3)cc1)CC2` yielded a melting point of 230 to 232 °C.

As for `CN1CCC(Sc2ccc3[nH]c(=O)n(C)c3c2)CC1`, the melting point is 196 to 198 °C.

Molecule `Cn1c(-c2ccc(Cl)cc2)nc2cc(CN3CCN(C(c4ccccc4)c4ccccc4)CC3)ccc21` showed a melting point of 198 °C.

In the case of `CON(C)C(=O)c1nc(C(C)(C)C)c(O)c(C(C)(C)C)n1`, the melting point was in the range of 137 to 138 °C.

On to `O=C1CC(C(F)(F)F)CC(=O)O1`, for which the melting point was in the range of 88 to 91 °C.

The molecule `COC(=O)c1ccc(NC(C)=O)c(C=NO)c1` came in with a melting point of 200 to 203 °C.

The molecule `CNc1ccc(-c2ocnc2-c2cc(OC)cc(OC)c2)cc1F` registered a melting point of 140 to 142 °C.

The molecule `O=C(O)c1cccc(-n2cnc3cc(-c4ccccc4)ccc32)c1` gave a melting point of 289 to 291 °C.

Turning to `COc1cc(C)cc(OC)c1NC(=O)CC(C)C`, the melting point is 139 °C.

`CN(C)C=CC(=O)c1ccc(C(=O)N2Cc3ccnn3Cc3ccccc32)cc1` registered a melting point of 225 to 230 °C.

`CN1CC[C@@H](c2c(O)cc(O)c3c(=O)cc(-c4cccnc4Cl)oc23)[C@@H]1CO` came in with a melting point of 125 to 127 °C.

`O=S(CCCCNC(P(=O)(O)O)P(=O)(O)O)c1ccccn1` (stereo not drawn) came in with a melting point of 235 to 240 °C.

`N=C(N)Nc1ncc(CSCCNC2=NS(=O)N=C2N)s1` (stereo not drawn) showed a melting point of 85 to 132 °C.

`Cc1nc2c(Cl)cc3nc(O)c(O)nc3c2nc1C` gave a melting point of over 300 °C.

For the molecule `N=C(NO)c1nc(-c2ccc(Cl)cc2)cc(C(F)(F)F)n1`, the melting point stood at 243 °C.

With `O=C(NCC12CC3CC(CC(C3)C1)C2)c1cc(O)ccc1Cl`, the melting point was 263 to 264 °C.

Take `Brc1ccccc1Oc1nc2ccccc2n2cncc12`: the melting point lay in the range of 180 to 182 °C.

`COc1ccc(-c2cn(-c3cccc(OCCn4ccnc4)c3)c3ncnc(N)c23)cc1OCc1ccccc1` showed a melting point of 150 °C.

In turn, `O=c1oc(-c2ccccc2F)nc2c(Cl)ccc(Cl)c12` had a melting point of 140 °C.

Molecule `Cc1cn(-c2cccc(C3=Nc4ccc(-c5ccc(F)cc5)cc4NC(=O)C3)c2)c(C)n1` registered a melting point of 188 °C.

`CS(=O)(=O)n1c2cc(O)c(O)cc2c2c(Br)cc(O)c(O)c21` showed a melting point of over 270 °C.

With `N#CCSC(=O)c1ccc(C#N)cc1`, the melting point was in the range of 132 to 134 °C.

The molecule `O=C(O)CNC1CCc2ccccc2C1` (stereo not drawn) returned a melting point of 223 to 227 °C.

In turn, `COc1ccc([C@@H]2O[C@H]2C(=O)O[C@@H]2CCCC[C@H]2c2ccccc2)cc1` gave a melting point of 146 to 148 °C.

In turn, `COC(=O)c1ccc(/C=C(\C)c2ccc3c(c2)OC(C)(C)O3)cc1` came in with a melting point of 72 to 74 °C.

On to `CCOC=Nc1sc2c(c1C#N)CCN(C)C2`, for which the melting point was 88 to 89 °C.

Take `CS(=O)CC(=O)c1ccon1` (stereo not drawn): the melting point was 164 to 166 °C.

In turn, `Cc1cc([N+](=O)[O-])c(Cl)c([N+](=O)[O-])c1C` showed a melting point of 109 to 111 °C.

Molecule `COc1ccc(-c2ccc(C#N)cc2C(F)(F)F)cc1C=O` gave a melting point of 116 to 118 °C.

The molecule `CCC1(O)CC(OC2CC(N(C)C)C(OC3CC(O)C(O)C(C)O3)C(C)O2)c2c(cc3c(c2O)C(=O)c2c(O)ccc(O)c2C3=O)C1C(=O)OC` (stereo not drawn) yielded a melting point of 162 to 163 °C.

As to `Cc1ccc2cccnc2c1C(=O)Nc1nnn[nH]1`, the melting point fell in the range of 285 to 287 °C.

Take `O=C(O)CCc1cn(Cc2ccc(OCc3csc(-c4ccccc4)n3)cc2)nc1-c1cccs1`: the melting point was in the range of 133 to 134 °C.

`COc1cc(C(F)(F)F)cc(Cl)c1Oc1ccc2ccc(O)cc2c1`: the melting point worked out at 130 °C.

`Nc1cc(C(F)(F)F)nc(C(=O)O)c1Cl` yielded a melting point of 131 to 133 °C.

Turning to `Cc1nc(-c2ccsc2)c2nc(-c3ccccc3)cc-2[nH]1`, the melting point is 232 to 233 °C.

Molecule `COc1cc(C)c2c(=O)c3c(C)c(Cl)ccc3oc2c1OC` showed a melting point of 101 °C.

The molecule `CC(C)COc1ccc(-n2cc(C(=O)O)cn2)cc1C#N` showed a melting point of 192 to 194 °C.

On to `COc1ccc(-c2ccc(-c3ccc(F)cc3)nc2-c2ccc(O)cc2)cc1`, for which the melting point is 143 to 145 °C.

As to `COc1ccc(C2CCN(C(=O)C(=O)NO)CC2)cc1C=C1CCCC1`, the melting point is 127 to 128 °C.

Take `COc1ccc(C=C2N=C(c3ccc([N+](=O)[O-])cc3)OC2=O)cc1OC`: the melting point was in the range of 265 to 267 °C.

Turning to `Cc1cccc(S(=O)(=O)Nc2onc(C)c2Br)c1`, the melting point fell in the range of 138 to 140 °C.

The molecule `N#CC1CN1C(=O)NC(=O)c1cccs1` (stereo not drawn) returned a melting point of 156 to 160 °C.

In turn, `C[C@]1(COc2ccc(N3CCC(CCOCc4ccc(OC(F)(F)F)cc4)CC3)cc2)Cn2cc([N+](=O)[O-])nc2O1` displayed a melting point of 205 to 207 °C.

Consider `O=C(Nc1ccc(Br)cc1-c1noc(=O)[nH]1)c1cccc(S(=O)(=O)N2CCOCC2)c1`, for which the melting point was in the range of 220 to 223 °C.

On to `CNC(=O)c1ccccc1Nc1nc(Nc2ccc3c(c2OC)CCCC(=O)N3CCOC)ncc1Cl`, for which the melting point was in the range of 205 to 207 °C.

Consider `CCCCCCSC[C@H](N[C@@H](C)C(=O)N1CCC[C@H]1C(=O)O)C(=O)O`, for which the melting point is 109 to 112 °C.

`ON=C1CCc2c(cccc2OCC(O)CN2CCN(C(c3ccccc3)c3ccccc3)CC2)C1` (stereo not drawn): the melting point was found to be 177 °C.

Regarding `CCOC(=O)C=Cc1ccc(NC(=O)OC(C)(C)C)cc1`, the melting point lay in the range of 105 to 109 °C.

A word on the melting point: it is the temperature of the solid-liquid transition.
